According to the supplement of paper PMC10307832:

Legend:
Test in all cases: relative viability (nuclei count vs DMSO), 5 days (fraction); higher = more cells survive
CAL-12T = tested on: CAL-12T
Summary of the method: (§1)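 Values are medians from duplicate plates. Each reflects relative viability, defined as the nuclei count of treated wells over that of vehicle wells. Lung cancer cell lines in 1536-well plates were pin-tool dosed one day after seeding with one drug alone or with a fixed anchor-drug dose plus five library-drug doses (not always all listed) in √10 steps, then fixed, stained and imaged at 4× after 5 days.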

ChaGo-K-1 = tested on: ChaGo-K-1
Summary of the method: as §1

HCC-366 = tested on: HCC-366
Summary of the method: as §1

HCC-78 = tested on: HCC-78
Summary of the method: as §1

LC-2-ad = tested on: LC-2-ad
Summary of the method: as §1

LOU-NH91 = tested on: LOU-NH91
Summary of the method: as §1

LU99A = tested on: LU99A
Summary of the method: as §1

NCI-H1395 = tested on: NCI-H1395
Summary of the method: as §1

NCI-H1651 = tested on: NCI-H1651
Summary of the method: as §1

NCI-H1734 = tested on: NCI-H1734
Summary of the method: as §1

NCI-H1755 = tested on: NCI-H1755
Summary of the method: as §1

NCI-H1793 = tested on: NCI-H1793
Summary of the method: as §1

NCI-H1944 = tested on: NCI-H1944
Summary of the method: as §1

NCI-H2087 = tested on: NCI-H2087
Summary of the method: as §1

NCI-H2170 = tested on: NCI-H2170
Summary of the method: as §1

NCI-H2228 = tested on: NCI-H2228
Summary of the method: as §1

NCI-H2405 = tested on: NCI-H2405
Summary of the method: as §1

NCI-H3122 = tested on: NCI-H3122
Summary of the method: as §1

NCI-H460 = tested on: NCI-H460
Summary of the method: as §1

PC-3 [JPC-3] = tested on: PC-3 [JPC-3]
Summary of the method: as §1

RERF-LC-KJ = tested on: RERF-LC-KJ
Summary of the method: as §1

UMC-11 = tested on: UMC-11
Summary of the method: as §1

In the case of `O=C(O)c1ccc(-c2c[nH]c3ncc(-c4ccccc4)cc23)cc1C1CCCC1` + Nc1nc2[nH]cc(CCc3ccc(C(=O)N[C@@H](CCC(=O)O)C(=O)O)cc3)c2c(=O)[nH]1 [Pemetrexed] (partner 0.2 µM), the relative viability (CAL-12T; first compound 0.04 µM) is reported as 1.15, the relative viability (CAL-12T; first compound 0.1265 µM) is reported as 1.04 and the relative viability (CAL-12T; first compound 0.4 µM) is reported as 1.1. It also gave a relative viability (CAL-12T; first compound 1.265 µM) of 1.09, a relative viability (ChaGo-K-1; first compound 0.04 µM) of 0.249 and a relative viability (ChaGo-K-1; first compound 0.1265 µM) of 0.255. The relative viability (ChaGo-K-1; first compound 0.4 µM) was 0.265, the relative viability (ChaGo-K-1; first compound 1.265 µM) was 0.264 and the relative viability (HCC-366; first compound 0.04 µM) was 0.178. The relative viability (HCC-366; first compound 0.1265 µM) was 0.203, the relative viability (HCC-366; first compound 0.4 µM) was 0.149 and the relative viability (HCC-366; first compound 1.265 µM) was 0.187. For the same molecule, the relative viability (HCC-78; first compound 0.1265 µM) was 0.919, the relative viability (HCC-78; first compound 0.4 µM) was 0.881 and the relative viability (HCC-78; first compound 1.265 µM) was 0.962. The relative viability (LC-2-ad; first compound 0.04 µM) was 0.302, the relative viability (LC-2-ad; first compound 0.1265 µM) was 0.272 and the relative viability (LC-2-ad; first compound 0.4 µM) was 0.278. The relative viability (LC-2-ad; first compound 1.265 µM) was 0.261, the relative viability (LOU-NH91; first compound 0.04 µM) was 0.419 and the relative viability (LOU-NH91; first compound 0.1265 µM) was 0.404. For the same molecule, the relative viability (LOU-NH91; first compound 0.4 µM) was 0.414, the relative viability (LOU-NH91; first compound 1.265 µM) was 0.435 and the relative viability (LU99A; first compound 0.04 µM) was 0.166. It also gave a relative viability (LU99A; first compound 0.1265 µM) of 0.192, a relative viability (LU99A; first compound 0.4 µM) of 0.187 and a relative viability (LU99A; first compound 1.265 µM) of 0.202. The relative viability (NCI-H1395; first compound 0.04 µM) was 0.949, the relative viability (NCI-H1395; first compound 0.1265 µM) was 1.14 and the relative viability (NCI-H1395; first compound 0.4 µM) was 0.774. The relative viability (NCI-H1395; first compound 1.265 µM) was 0.858, the relative viability (NCI-H1651; first compound 0.04 µM) was 0.482 and the relative viability (NCI-H1651; first compound 0.1265 µM) was 0.603. For the same molecule, the relative viability (NCI-H1651; first compound 0.4 µM) was 0.641, the relative viability (NCI-H1651; first compound 1.265 µM) was 0.527 and the relative viability (NCI-H1734; first compound 0.04 µM) was 0.413. For the same molecule, the relative viability (NCI-H1734; first compound 0.1265 µM) was 0.43, the relative viability (NCI-H1734; first compound 0.4 µM) was 0.428 and the relative viability (NCI-H1734; first compound 1.265 µM) was 0.411. It also gave a relative viability (NCI-H1755; first compound 0.04 µM) of 0.412, a relative viability (NCI-H1755; first compound 0.1265 µM) of 0.449 and a relative viability (NCI-H1755; first compound 0.4 µM) of 0.405. The relative viability (NCI-H1755; first compound 1.265 µM) was 0.436, the relative viability (NCI-H1793; first compound 0.04 µM) was 0.83 and the relative viability (NCI-H1793; first compound 0.1265 µM) was 1.19. The relative viability (NCI-H1793; first compound 0.4 µM) was 0.865, the relative viability (NCI-H1793; first compound 1.265 µM) was 0.882 and the relative viability (NCI-H1944; first compound 0.04 µM) was 0.692. For the same molecule, the relative viability (NCI-H1944; first compound 0.1265 µM) was 0.799, the relative viability (NCI-H1944; first compound 0.4 µM) was 0.69 and the relative viability (NCI-H1944; first compound 1.265 µM) was 0.565. The relative viability (NCI-H2087; first compound 0.04 µM) was 0.576, the relative viability (NCI-H2087; first compound 0.1265 µM) was 0.652 and the relative viability (NCI-H2087; first compound 0.4 µM) was 0.653. The relative viability (NCI-H2087; first compound 1.265 µM) was 0.585, the relative viability (NCI-H2170; first compound 0.04 µM) was 0.265 and the relative viability (NCI-H2170; first compound 0.1265 µM) was 0.263. For the same molecule, the relative viability (NCI-H2170; first compound 0.4 µM) was 0.247, the relative viability (NCI-H2170; first compound 1.265 µM) was 0.282 and the relative viability (NCI-H2228; first compound 0.04 µM) was 0.349. For the same molecule, the relative viability (NCI-H2228; first compound 0.1265 µM) was 0.294, the relative viability (NCI-H2228; first compound 0.4 µM) was 0.348 and the relative viability (NCI-H2228; first compound 1.265 µM) was 0.29. For the same molecule, the relative viability (NCI-H2405; first compound 0.04 µM) was 1.05, the relative viability (NCI-H2405; first compound 0.1265 µM) was 1.15 and the relative viability (NCI-H2405; first compound 0.4 µM) was 0.959. The relative viability (NCI-H2405; first compound 1.265 µM) was 0.648, the relative viability (NCI-H3122; first compound 0.04 µM) was 0.204 and the relative viability (NCI-H3122; first compound 0.1265 µM) was 0.202. It also gave a relative viability (NCI-H3122; first compound 0.4 µM) of 0.217, a relative viability (NCI-H3122; first compound 1.265 µM) of 0.21 and a relative viability (NCI-H460; first compound 0.04 µM) of 0.0611. It also gave a relative viability (NCI-H460; first compound 0.1265 µM) of 0.0579, a relative viability (NCI-H460; first compound 0.4 µM) of 0.0617 and a relative viability (NCI-H460; first compound 1.265 µM) of 0.0609. It also gave a relative viability (PC-3 [JPC-3]; first compound 0.04 µM) of 1.05, a relative viability (PC-3 [JPC-3]; first compound 0.1265 µM) of 1.18 and a relative viability (PC-3 [JPC-3]; first compound 0.4 µM) of 1.1. For the same molecule, the relative viability (PC-3 [JPC-3]; first compound 1.265 µM) was 1.03, the relative viability (RERF-LC-KJ; first compound 0.04 µM) was 0.466 and the relative viability (RERF-LC-KJ; first compound 0.1265 µM) was 0.469. The relative viability (RERF-LC-KJ; first compound 0.4 µM) was 0.481, the relative viability (RERF-LC-KJ; first compound 1.265 µM) was 0.481 and the relative viability (UMC-11; first compound 0.04 µM) was 0.703. The relative viability (UMC-11; first compound 0.1265 µM) was 0.719, the relative viability (UMC-11; first compound 0.4 µM) was 0.693 and the relative viability (UMC-11; first compound 1.265 µM) was 0.653.
